System: SEM cells
Assay: cell viability relative to DMSO control; higher = less cytotoxic
Conditions: 48 h
Outline: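 Viability is a per-plate percentage relative to DMSO wells, with cell-free wells as background. CellTiter-Glo One luminescence was read after 48 h at 37°C on 1536-well plates (5 μl) of NOMO1 or SEM (500 cells/well) or P12-Ichikawa (1000 cells/well) leukemia cells. The cells had been adapted for at least four passages in each medium and pin-dosed with library compounds in DMSO from 47 μM to 0.79 nM in 11 threefold steps.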

[1] = HPLM + 10% dialyzed FBS, 0.000781 µM
[2] = HPLM + 10% dialyzed FBS, 0.00234 µM
[3] = HPLM + 10% dialyzed FBS, 0.00702 µM
[4] = HPLM + 10% dialyzed FBS, 0.0211 µM
[5] = HPLM + 10% dialyzed FBS, 0.0632 µM
[6] = HPLM + 10% dialyzed FBS, 0.19 µM
[7] = HPLM + 10% dialyzed FBS, 0.569 µM
[8] = HPLM + 10% dialyzed FBS, 1.71 µM
[9] = HPLM + 10% dialyzed FBS, 5.12 µM
[10] = HPLM + 10% dialyzed FBS, 15.4 µM
[11] = HPLM + 10% dialyzed FBS, 46.1 µM
[12] = RPMI 5 mM glucose + 10% FBS, 0.000781 µM
[13] = RPMI 5 mM glucose + 10% FBS, 0.00234 µM
[14] = RPMI 5 mM glucose + 10% FBS, 0.00702 µM
[15] = RPMI 5 mM glucose + 10% FBS, 0.0211 µM
[16] = RPMI 5 mM glucose + 10% FBS, 0.0632 µM
[17] = RPMI 5 mM glucose + 10% FBS, 0.19 µM
[18] = RPMI 5 mM glucose + 10% FBS, 0.569 µM
[19] = RPMI 5 mM glucose + 10% FBS, 1.71 µM
[20] = RPMI 5 mM glucose + 10% FBS, 5.12 µM
[21] = RPMI 5 mM glucose + 10% FBS, 15.4 µM
[22] = RPMI 5 mM glucose + 10% FBS, 46.1 µM
[23] = RPMI 5 mM glucose + 10% dialyzed FBS, 0.000781 µM
[24] = RPMI 5 mM glucose + 10% dialyzed FBS, 0.00234 µM
[25] = RPMI 5 mM glucose + 10% dialyzed FBS, 0.00702 µM
[26] = RPMI 5 mM glucose + 10% dialyzed FBS, 0.0211 µM
[27] = RPMI 5 mM glucose + 10% dialyzed FBS, 0.0632 µM
[28] = RPMI 5 mM glucose + 10% dialyzed FBS, 0.19 µM
[29] = RPMI 5 mM glucose + 10% dialyzed FBS, 0.569 µM
[30] = RPMI 5 mM glucose + 10% dialyzed FBS, 1.71 µM
[31] = RPMI 5 mM glucose + 10% dialyzed FBS, 5.12 µM
[32] = RPMI 5 mM glucose + 10% dialyzed FBS, 15.4 µM
[33] = RPMI 5 mM glucose + 10% dialyzed FBS, 46.1 µM

SMILES | cell viability [1] [%] | cell viability [2] [%] | cell viability [3] [%] | cell viability [4] [%] | cell viability [5] [%] | cell viability [6] [%] | cell viability [7] [%] | cell viability [8] [%] | cell viability [9] [%] | cell viability [10] [%] | cell viability [11] [%] | cell viability [12] [%] | cell viability [13] [%] | cell viability [14] [%] | cell viability [15] [%] | cell viability [16] [%] | cell viability [17] [%] | cell viability [18] [%] | cell viability [19] [%] | cell viability [20] [%] | cell viability [21] [%] | cell viability [22] [%] | cell viability [23] [%] | cell viability [24] [%] | cell viability [25] [%] | cell viability [26] [%] | cell viability [27] [%] | cell viability [28] [%] | cell viability [29] [%] | cell viability [30] [%] | cell viability [31] [%] | cell viability [32] [%] | cell viability [33] [%]
N#C[C@H](O[C@@H]1O[C@H](CO[C@@H]2O[C@H](CO)[C@@H](O)[C@H](O)[C@H]2O)[C@@H](O)[C@H](O)[C@H]1O)c1ccccc1 | 114 | 103 | 113 | 127 | 115 | 118 | 108 | 102 | 110 | 114 | 41.8 | 106 | 98.3 | 120 | 112 | 99.8 | 102 | 112 | 94.8 | 94.5 | 95.7 | 20.6 | 97.4 | 104 | 97.4 | 122 | 99 | 99.7 | 97.5 | 101 | 91.4 | 92.2 | 15.3
NC(=O)Nc1cc(-c2cccc(F)c2)sc1C(=O)N[C@H]1CCCNC1 | 88.8 | 62 | 66.4 | 46.3 | 38.2 | 28.6 | 27.5 | 27.1 | 23.3 | 19 | 20.3 | 110 | 84.4 | 71.6 | 45.2 | 45 | 37.6 | 32.7 | 27.7 | 20.4 | 11.3 | 13.7 | 98.9 | 69.4 | 52.4 | 44.5 | 32.2 | 26.3 | 25.5 | 21.3 | 16.7 | 12.4 | 10.6
COc1cc(CNC(=O)CCCC/C=C/C(C)C)ccc1O | 88.8 | 92.6 | 104 | 99 | 101 | 96.6 | 79.7 | 36.7 | 32.9 | 29.7 | 18.6 | 110 | 110 | 121 | 123 | 107 | 111 | 56.7 | 19.3 | 21.4 | 15.9 | 12.5 | 94.3 | 93.2 | 98.7 | 101 | 94.6 | 93.8 | 86.6 | 23.6 | 27.2 | 19 | 15.4
C#CCN[C@@H]1CCc2ccccc21.CS(=O)(=O)O | 105 | 101 | 83.6 | 86.2 | 110 | 108 | 107 | 106 | 41.2 | 91.7 | 89.2 | 103 | 112 | 56.8 | 97.3 | 112 | 105 | 106 | 100 | 24.4 | 96 | 95.2 | 107 | 116 | 74.2 | 82.9 | 99.7 | 105 | 99.8 | 106 | 42.8 | 110 | 86.3
Cc1noc(-c2ccc(CSCCC(=O)O)cc2)c1NC(=O)OC(C)c1ccccc1Cl (centres undefined) | 95.3 | 95.1 | 99.2 | 89.3 | 88.4 | 97 | 99.7 | 89.3 | 97.1 | 98.7 | 95.6 | 99.9 | 98.8 | 82.5 | 94.5 | 83.9 | 100 | 96.2 | 70.3 | 101 | 89.7 | 81.3 | 90 | 108 | 104 | 115 | 97 | 115 | 101 | 69.3 | 117 | 114 | 88.3
Cc1ncc([N+](=O)[O-])n1CC(C)O (centres undefined) | 60.5 | 75.1 | 69.3 | 75.5 | 57.6 | 71.4 | 91.4 | 88.1 | 81.6 | 82.8 | 13.3 | 78.9 | 99.3 | 89.4 | 99.8 | 64.6 | 97.8 | 102 | 110 | 96.2 | 101 | 14.8 | 84.2 | 101 | 98.4 | 99.3 | 84.6 | 104 | 118 | 119 | 110 | 99.6 | 14
NC(=O)c1ncn([C@@H]2O[C@H](CO)[C@@H](O)[C@H]2O)c1O | 128 | 118 | 82.8 | 120 | 117 | 117 | 115 | 130 | 118 | 123 | 104 | 112 | 127 | 89.1 | 137 | 131 | 131 | 115 | 118 | 121 | 117 | 114 | 98.7 | 104 | 85.8 | 128 | 121 | 104 | 112 | 115 | 113 | 116 | 113
O=c1[nH]c(=O)n(C2CCCO2)cc1F (centres undefined) | 92.4 | 124 | 105 | 119 | 122 | 127 | 92.5 | 111 | 90.2 | 104 | 99.1 | 123 | 120 | 109 | 126 | 115 | 110 | 127 | 114 | 123 | 122 | 104 | 70.2 | 110 | 109 | 117 | 99.7 | 115 | 108 | 109 | 102 | 104 | 97.8
Cn1cc(C[C@@H](N)C(=O)O)c2ccccc21 | 92 | 105 | 95.8 | 113 | 112 | 121 | 112 | 111 | 101 | 92.3 | 76.7 | 80 | 50.1 | 79.6 | 94 | 89.8 | 96.4 | 91.1 | 97.9 | 107 | 80.9 | 62.7 | 114 | 92.1 | 102 | 106 | 97.7 | 108 | 98.8 | 97 | 102 | 96.3 | 70
COc1cc(N2CCC(N(C)C)CC2)ccc1Nc1ncc(Cl)c(Nc2ccccc2P(C)(C)=O)n1 | 117 | 112 | 116 | 114 | 110 | 82.3 | 51 | 28.3 | 17.7 | 11.9 | 5.99 | 114 | 105 | 114 | 109 | 128 | 95.4 | 57.8 | 18.2 | 8.88 | 6.45 | 4.89 |  |  |  |  |  |  |  |  |  |  | 
Cc1nc(Nc2n[nH]c3c2CN(C(=O)N[C@H](CN(C)C)c2ccccc2)C3(C)C)c2sccc2n1 | 72.2 | 70.6 | 51.6 | 66.4 | 52.6 | 48.5 | 36.6 | 23.8 | 15.7 | 2.46 | 4.3 | 91.2 | 85.9 | 62.8 | 79.1 | 60.3 | 47 | 46 | 25.7 | 15.2 | 1.75 | 3.09 | 82.2 | 73 | 70.1 | 82.1 | 64.2 | 55.1 | 50 | 30.4 | 21.4 | 2.4 | 3.71
O=C(Nc1cccnn1)N1CCC(=Cc2cccc(Oc3ccc(C(F)(F)F)cn3)c2)CC1 | 81.8 | 86.8 | 84.4 | 21.1 | 94.9 | 98 | 92.5 | 85 | 90 | 81.3 | 75.6 | 104 | 115 | 112 | 17.1 | 119 | 127 | 121 | 139 | 118 | 103 | 87.8 | 92.8 | 92.6 | 89.8 | 17 | 113 | 112 | 106 | 98.4 | 93.7 | 78.3 | 55.8
CC(NCCc1ccc(O)cc1)C(O)c1ccc(O)cc1 (centres undefined) | 84.4 | 80.5 | 73 | 89 | 86.1 | 84.1 | 74.6 | 98.7 | 90.7 | 105 | 84.8 | 106 | 110 | 109 | 111 | 97.5 | 103 | 92.5 | 107 | 98.2 | 103 | 99.4 | 133 | 119 | 122 | 118 | 117 | 110 | 90.6 | 112 | 105 | 111 | 81.9
O.O.CCN1CCN(C(=O)N[C@H](C(=O)N[C@H]2[C@@H]3SC\C(=C(/N3C2=O)C(O)=O)CSC4=NN=N[N]4C)C5=CC=C(O)C=C5)C(=O)C1=O | 81 | 81.3 | 90.4 | 20.6 | 107 | 95.4 | 104 | 101 | 103 | 98.6 | 105 | 99.1 | 75.9 | 99.4 | 15.1 | 95.3 | 104 | 107 | 94.5 | 90.9 | 117 | 98.8 | 88.1 | 80.5 | 97.6 | 17.3 | 91.6 | 106 | 101 | 99.7 | 104 | 93.4 | 103
C[C@@H](O)[C@@H]1NC(=O)[C@H](CCCCN)NC(=O)[C@@H](Cc2c[nH]c3ccccc23)NC(=O)[C@H](Cc2ccccc2)NC(=O)[C@@H](NC(=O)[C@H](N)Cc2ccccc2)CSSC[C@@H](C(=O)N[C@H](CO)[C@@H](C)O)NC1=O | 71.3 | 83.6 | 87.8 | 91 | 99 | 78.3 | 83.4 | 91.2 | 97.5 | 97.7 | 84.6 | 67.4 | 94.4 | 83.2 | 105 | 90.6 | 55.5 | 82.6 | 91.6 | 101 | 90.4 | 70.4 | 64.8 | 81 | 84.5 | 86.1 | 78.7 | 75.1 | 81.7 | 74.7 | 97.1 | 85.6 | 67.3
